Data from the NIST ThermoML archive (doi:10.1016/j.jct.2010.09.008).

Columns and labels:
[1] = relative permittivity at zero frequency (dimensionless); xn = mol fraction of the nth substance listed; settings: 101.3 kPa, Liquid, AC Method
[2] = xn = mol fraction of the nth substance listed; settings: 101.3 kPa, Liquid, Vibrating tube method
[3] = 101.33 kPa, Liquid, Vibrating tube method
[4] = relative permittivity at zero frequency (dimensionless); settings: 101.33 kPa, Liquid, AC method

COCCOCCOC [2,5,8-trioxanonane] + CCCCCCC
Settings | mass density [kg/m3] | relative permittivity at zero frequency
[1], 288.15 K, x2 = 0.0492 | – | 7.25
[1], 288.15 K, x2 = 0.0982 | – | 6.84
[1], 288.15 K, x2 = 0.1991 | – | 6.04
[1], 288.15 K, x2 = 0.3006 | – | 5.3
[1], 288.15 K, x2 = 0.398 | – | 4.65
[1], 288.15 K, x2 = 0.4977 | – | 4.05
[1], 288.15 K, x2 = 0.5854 | – | 3.58
[1], 288.15 K, x2 = 0.7026 | – | 3.02
[1], 288.15 K, x2 = 0.801 | – | 2.61
[1], 288.15 K, x2 = 0.8927 | – | 2.28
[1], 288.15 K, x2 = 0.9408 | – | 2.12
[1], 298.15 K, x2 = 0.0494 | – | 6.98
[1], 298.15 K, x2 = 0.0988 | – | 6.59
[1], 298.15 K, x2 = 0.1956 | – | 5.85
[1], 298.15 K, x2 = 0.303 | – | 5.11
[1], 298.15 K, x2 = 0.3959 | – | 4.52
[1], 298.15 K, x2 = 0.4948 | – | 3.96
[1], 298.15 K, x2 = 0.6028 | – | 3.4
[1], 298.15 K, x2 = 0.7018 | – | 2.95
[1], 298.15 K, x2 = 0.7937 | – | 2.59
[1], 298.15 K, x2 = 0.891 | – | 2.25
[1], 298.15 K, x2 = 0.9419 | – | 2.09
[1], 308.15 K, x2 = 0.0494 | – | 6.73
[1], 308.15 K, x2 = 0.0981 | – | 6.35
[1], 308.15 K, x2 = 0.1993 | – | 5.62
[1], 308.15 K, x2 = 0.3025 | – | 4.94
[1], 308.15 K, x2 = 0.3951 | – | 4.39
[1], 308.15 K, x2 = 0.4936 | – | 3.86
[1], 308.15 K, x2 = 0.5951 | – | 3.36
[1], 308.15 K, x2 = 0.7021 | – | 2.89
[1], 308.15 K, x2 = 0.7993 | – | 2.53
[1], 308.15 K, x2 = 0.8953 | – | 2.21
[1], 308.15 K, x2 = 0.9472 | – | 2.06
[2], 288.15 K, x2 = 0.0482 | 935.46 | –
[2], 288.15 K, x2 = 0.0986 | 921.11 | –
[2], 288.15 K, x2 = 0.1969 | 893.54 | –
[2], 288.15 K, x2 = 0.3042 | 864.14 | –
[2], 288.15 K, x2 = 0.4054 | 836.87 | –
[2], 288.15 K, x2 = 0.5047 | 810.62 | –
[2], 288.15 K, x2 = 0.6049 | 784.64 | –
[2], 288.15 K, x2 = 0.6982 | 760.9 | –
[2], 288.15 K, x2 = 0.788 | 738.48 | –
[2], 288.15 K, x2 = 0.8899 | 713.78 | –
[2], 288.15 K, x2 = 0.9452 | 700.73 | –
[2], 298.15 K, x2 = 0.0484 | 925.56 | –
[2], 298.15 K, x2 = 0.1001 | 910.8 | –
[2], 298.15 K, x2 = 0.1957 | 884.11 | –
[2], 298.15 K, x2 = 0.2887 | 858.66 | –
[2], 298.15 K, x2 = 0.4049 | 827.49 | –
[2], 298.15 K, x2 = 0.4975 | 803.13 | –
[2], 298.15 K, x2 = 0.5939 | 778.25 | –
[2], 298.15 K, x2 = 0.6925 | 753.3 | –
[2], 298.15 K, x2 = 0.7931 | 728.38 | –
[2], 298.15 K, x2 = 0.8988 | 703 | –
[2], 298.15 K, x2 = 0.9481 | 691.49 | –
[2], 308.15 K, x2 = 0.0482 | 915.56 | –
[2], 308.15 K, x2 = 0.098 | 901.53 | –
[2], 308.15 K, x2 = 0.1961 | 874.29 | –
[2], 308.15 K, x2 = 0.3036 | 845.06 | –
[2], 308.15 K, x2 = 0.3981 | 819.81 | –
[2], 308.15 K, x2 = 0.4994 | 793.28 | –
[2], 308.15 K, x2 = 0.599 | 767.73 | –
[2], 308.15 K, x2 = 0.6963 | 743.26 | –
[2], 308.15 K, x2 = 0.7844 | 721.56 | –
[2], 308.15 K, x2 = 0.8841 | 697.7 | –
[2], 308.15 K, x2 = 0.9372 | 685.34 | –
[2], 308.15 K, x2 = 0.9738 | 676.94 | –

COCCOCCOCCOCCOC [2,5,8,11,14-pentaoxapentadecane] + CCCCCCC
Settings | mass density, [2] [kg/m3] | relative permittivity at zero frequency, [1]
288.15 K, x2 = 0.0498 | – | 7.74
288.15 K, x2 = 0.0505 | 1004.42 | –
288.15 K, x2 = 0.0975 | 993.3 | –
288.15 K, x2 = 0.0999 | – | 7.42
288.15 K, x2 = 0.1982 | 968.25 | –
288.15 K, x2 = 0.2001 | – | 6.79
288.15 K, x2 = 0.3 | 941.07 | 6.15
288.15 K, x2 = 0.3985 | – | 5.52
288.15 K, x2 = 0.4 | 912.66 | –
288.15 K, x2 = 0.5009 | 881.97 | –
288.15 K, x2 = 0.5076 | – | 4.82
288.15 K, x2 = 0.6017 | 848.59 | –
288.15 K, x2 = 0.6033 | – | 4.2
288.15 K, x2 = 0.6931 | 816.13 | –
288.15 K, x2 = 0.7044 | – | 3.58
288.15 K, x2 = 0.7998 | 775.06 | –
288.15 K, x2 = 0.8028 | – | 2.99
288.15 K, x2 = 0.8972 | 734.27 | –
288.15 K, x2 = 0.8985 | – | 2.45
288.15 K, x2 = 0.8994 | – | 2.45
288.15 K, x2 = 0.9466 | 712.33 | –
288.15 K, x2 = 0.9495 | – | 2.19
298.15 K, x2 = 0.0496 | – | 7.49
298.15 K, x2 = 0.0499 | 995.11 | –
298.15 K, x2 = 0.0996 | 983.28 | –
298.15 K, x2 = 0.1016 | – | 7.19
298.15 K, x2 = 0.1994 | – | 6.58
298.15 K, x2 = 0.1995 | 958.5 | –
298.15 K, x2 = 0.2961 | 932.8 | –
298.15 K, x2 = 0.299 | – | 5.97
298.15 K, x2 = 0.4031 | 902.6 | –
298.15 K, x2 = 0.406 | – | 5.31
298.15 K, x2 = 0.4975 | 873.81 | –
298.15 K, x2 = 0.5037 | – | 4.7
298.15 K, x2 = 0.6024 | – | 4.1
298.15 K, x2 = 0.6043 | 838.65 | –
298.15 K, x2 = 0.6975 | 805.52 | –
298.15 K, x2 = 0.7027 | – | 3.51
298.15 K, x2 = 0.8001 | – | 2.95
298.15 K, x2 = 0.8006 | 765.91 | –
298.15 K, x2 = 0.8982 | 725.23 | –
298.15 K, x2 = 0.9013 | – | 2.41
298.15 K, x2 = 0.948 | 703.4 | –
298.15 K, x2 = 0.9499 | – | 2.16
308.15 K, x2 = 0.0469 | 986.65 | –
308.15 K, x2 = 0.0503 | – | 7.25
308.15 K, x2 = 0.0979 | 974.59 | –
308.15 K, x2 = 0.1003 | – | 6.95
308.15 K, x2 = 0.1976 | 949.94 | –
308.15 K, x2 = 0.201 | – | 6.36
308.15 K, x2 = 0.2944 | 924.23 | –
308.15 K, x2 = 0.2949 | – | 5.82
308.15 K, x2 = 0.3006 | 922.61 | –
308.15 K, x2 = 0.3924 | – | 5.24
308.15 K, x2 = 0.404 | 893.13 | –
308.15 K, x2 = 0.4956 | 865.23 | –
308.15 K, x2 = 0.5048 | – | 4.58
308.15 K, x2 = 0.6018 | 830.49 | –
308.15 K, x2 = 0.6066 | – | 3.98
308.15 K, x2 = 0.6965 | 796.89 | –
308.15 K, x2 = 0.7117 | – | 3.38
308.15 K, x2 = 0.7981 | 758.07 | –
308.15 K, x2 = 0.7999 | – | 2.9
308.15 K, x2 = 0.8986 | 716.39 | –
308.15 K, x2 = 0.8988 | – | 2.38
308.15 K, x2 = 0.9479 | 694.69 | –
308.15 K, x2 = 0.9491 | – | 2.14

COCCOCCOC [2,5,8-trioxanonane]
Settings | mass density, 288.15 K [kg/m3] | mass density, 298.15 K [kg/m3] | mass density, 308.15 K [kg/m3] | relative permittivity at zero frequency, 288.15 K | relative permittivity at zero frequency, 298.15 K | relative permittivity at zero frequency, 308.15 K
[3] | 949.34 | 939.35 | 929.36 | – | – | –
[4] | – | – | – | 7.69 | 7.4 | 7.12

COCCOC [1,2-dimethoxyethane]
Settings | mass density, 288.15 K [kg/m3] | mass density, 298.15 K [kg/m3] | mass density, 308.15 K [kg/m3] | relative permittivity at zero frequency, 288.15 K | relative permittivity at zero frequency, 298.15 K | relative permittivity at zero frequency, 308.15 K
[3] | 872.05 | 861.14 | 850.06 | – | – | –
[4] | – | – | – | 7.41 | 7.07 | 6.75

CCCCCCC [heptane]
Settings | mass density, 288.15 K [kg/m3] | mass density, 298.15 K [kg/m3] | mass density, 308.15 K [kg/m3] | relative permittivity at zero frequency, 288.15 K | relative permittivity at zero frequency, 298.15 K | relative permittivity at zero frequency, 308.15 K
[3] | 688.03 | 679.58 | 671.03 | – | – | –
[4] | – | – | – | 1.94 | 1.93 | 1.92
